How the values were obtained:
COX-2 = target: T1, COX-2 (Homo sapiens, UniProt P35354); test: Human whole blood assay, COX-2 (LPS-induced PGE2 production); assay type: cell-based; set-up: endogenous in cells; host or cells: fresh heparinized human whole blood from volunteers, incubated with LPS; details: LPS-induced PGE2, 24 hours at 37° C., read-out: COX-2 (IC50 μM) HWB
T1 sequence (P35354 18-604): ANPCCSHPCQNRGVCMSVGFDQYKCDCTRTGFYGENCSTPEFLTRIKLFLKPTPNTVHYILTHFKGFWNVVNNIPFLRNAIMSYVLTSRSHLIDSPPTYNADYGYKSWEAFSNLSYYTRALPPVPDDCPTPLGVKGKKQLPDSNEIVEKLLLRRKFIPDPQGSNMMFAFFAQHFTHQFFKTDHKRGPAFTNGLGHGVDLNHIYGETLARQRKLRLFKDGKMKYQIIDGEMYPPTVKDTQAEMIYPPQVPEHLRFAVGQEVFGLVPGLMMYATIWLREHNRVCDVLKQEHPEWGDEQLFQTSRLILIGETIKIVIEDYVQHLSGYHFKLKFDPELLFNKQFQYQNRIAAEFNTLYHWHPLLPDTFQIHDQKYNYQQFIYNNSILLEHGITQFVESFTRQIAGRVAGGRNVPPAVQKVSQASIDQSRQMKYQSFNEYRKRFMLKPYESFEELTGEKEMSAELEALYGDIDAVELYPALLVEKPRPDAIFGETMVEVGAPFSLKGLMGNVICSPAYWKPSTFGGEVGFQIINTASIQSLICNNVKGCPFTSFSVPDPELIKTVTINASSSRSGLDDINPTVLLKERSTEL
Experimental: Human whole blood provides a protein and cell-rich milieu appropriate for the study of biochemical efficacy of anti-inflammatory compounds such as selective COX-2 inhibitors. […] This is consistent with the observation that COX-2 inhibitors have no effect on PGE2 production in normal blood. These inhibitors are active only after incubation of human whole blood with LPS, which induces COX-2. This assay can be used to evaluate the inhibitory effect of selective COX-2 inhibitors on PGE2 production. As well, platelets in whole blood contain a large amount of the COX-1 enzyme. Immediately following blood clotting, platelets are activated through a thrombin-mediated mechanism. This reaction results in the production of thromboxane B2 (TxB2) via activation of COX-1. Thus, the effect of test compounds on TxB2 levels following blood clotting can be examined and used as an index for COX-1 activity. Therefore, the degree of selectivity by the test compound can be determined by measuring the levels of PGE2 after LPS induction (COX-2) and TxB2 following blood clotting (COX-1) in the same assay.
A. COX-2 (LPS-induced PGE2 production)
Fresh blood is collected in heparinized tubes by venipuncture from both male and female volunteers. The subjects have no apparent inflammatory conditions and have not taken any NSAIDs for at least 7 days prior to blood collection. Plasma is immediately obtained from a 2 mL blood aliquot to use as blank (basal levels of PGE2). The remaining blood is incubated with LPS (100 μg/ml final concentration, Sigma Chem, #L-2630 from E. coli; diluted in 0.1% BSA (Phosphate buffered saline) for 5 minutes at room temperature. Five hundred μL aliquots of blood are incubated with either 2 μL of vehicle (DMSO) or 2 μL of a test compound at final concentrations varying from 10 nM to 30 μM for 24 hours at 37° C. At the end of the incubation, the blood is centrifuged at 12,000×g for 5 minutes to obtain plasma. A 100 μL aliquot of plasma is mixed with 400 μL of methanol for protein precipitation. The supernatant is obtained and is assayed for PGE2 using a radioimmunoassay kit (Amersham, RPA#530) after conversion of PGE2 to its methyl oximate derivative according to the manufacturer's procedure.

COX-1 = COX-1 (Homo sapiens, UniProt P23219); test: Assay of COX-1 activity from U937 cell microsomes; assay type: biochemical; set-up: endogenous in cells; host or cells: U937 cells, 100,000 x g microsomal pellet; details: PGE2, read-out: COX-1 (IC50 μM) U-937
Experimental: Assay of COX-1 Activity from U937 cell microsomes
U937 cells are pelleted by centrifugation at 500×g for 5 min and washed once with phosphate-buffered saline and repelleted. Cells are resuspended in homogenization buffer consisting of 0.1M Tris-HCl, pH 7.4, 10 mM EDTA, 2 μg/ml leupeptin, 2 μg/ml soybean trypsin inhibitor, 2 μg/ml aprotinin and 1 mM phenyl methyl sulfonyl fluoride. The cell suspension is sonicated 4 times for 10 sec and is centrifuged at 10,000×g for 10 min at 4° C. The supernatant is centrifuged at 100,000×g for 1 hr at 4° C. The 100,000×g microsomal pellet is resuspended in 0.1M Tris-HCl, pH 7.4, 10 mM EDTA to approximately 7 mg protein/ml and stored at −80° C.
Microsomal preparations are thawed immediately prior to use, subjected to a brief sonication, and then diluted to a protein concentration of 125 μg/ml in 0.1 M Tris-HCl buffer, pH 7.4 containing 10 mM EDTA, 0.5 mM phenol, 1 mM reduced glutathione and 1 μM hematin. Assays are performed in duplicate in a final volume of 250 μl. Initially, 5 μl of DMSO vehicle or drug in DMSO are added to 20 μl of 0.1M Tris-HCl buffer, pH 7.4 containing 10 mM EDTA in wells of a 96-deepwell polypropylene titre plate. 200 μl of the microsomal preparation are then added and pre-incubated for 15 min at room temperature before addition of 25 μl of […] arachidonic acid in 0.1M Tris-HCl and 10 mM EDTA, pH 7.4. Samples are incubated for 40 min at room temperature and the reaction is stopped by the addition of 25 μl of 1N HCl. Samples are neutralized with 25 μl of 1N NaOH prior to quantitation of PGE2 content by radioimmunoassay (Dupont-NEN or Amersham assay kits). Cyclooxygenase activity is defined as the difference between PGE2 levels in samples incubated in the presence of arachidonic acid and ethanol vehicle.
Compounds of the present invention are inhibitors of cyclooxygenase-2 and are thereby useful in the treatment of cyclooxygenase-2 mediated diseases as enumerated above. The activities of the compounds against cyclooxygenase may be seen in the representative results shown below. In the assay, inhibition is determined by measuring the amount of prostaglandin E2 (PGE2) synthesized in the presence of arachidonic acid, cyclooxygenase-1 or cyclooxygenase-2 and a putative inhibitor. The IC50 values represent the concentration of putative inhibitor required to return PGE2 synthesis to 50% of that obtained as compared to the uninhibited control.

COX-1, sequence (P23219 24-599): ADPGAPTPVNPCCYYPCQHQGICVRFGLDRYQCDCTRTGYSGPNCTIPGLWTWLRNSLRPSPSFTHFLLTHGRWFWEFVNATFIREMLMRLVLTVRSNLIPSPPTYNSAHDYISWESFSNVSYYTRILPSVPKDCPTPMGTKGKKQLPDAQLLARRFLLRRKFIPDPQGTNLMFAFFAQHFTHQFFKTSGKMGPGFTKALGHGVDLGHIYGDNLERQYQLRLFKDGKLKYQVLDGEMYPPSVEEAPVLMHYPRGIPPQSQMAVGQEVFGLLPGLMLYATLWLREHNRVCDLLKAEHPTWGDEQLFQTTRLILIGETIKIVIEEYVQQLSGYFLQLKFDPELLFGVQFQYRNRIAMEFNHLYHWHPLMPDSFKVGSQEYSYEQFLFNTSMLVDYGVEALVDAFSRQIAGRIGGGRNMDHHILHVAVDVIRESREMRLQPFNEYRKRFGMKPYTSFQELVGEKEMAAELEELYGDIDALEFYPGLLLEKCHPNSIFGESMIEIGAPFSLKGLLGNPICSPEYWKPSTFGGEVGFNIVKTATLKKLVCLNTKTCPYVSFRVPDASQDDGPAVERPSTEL

IC50 (COX-2) [µM] | IC50 (COX-1) [µM] | Structure (SMILES)
1.3 | > 10 | Cc1cc(-c2ccc(S(C)(=O)=O)cc2)c(SC(C)C)c(=O)o1 [Example 10, 3-Isopropylthio-6-methyl-4-(4-(methylsulfonyl)phenyl)-pyran-2-one]
1.2 | > 10 | Cc1cc(-c2ccc(S(C)(=O)=O)cc2)c(CCC(C)(C)O)c(=O)o1 [Example 14, 3-(3-Hydroxy-3-methylbutyl)-6-methyl-4-(4-methylsulfonyl)phenyl-pyran-2-one]
0.6 | 0.3 to 1 | Cc1cc(-c2ccc(S(C)(=O)=O)cc2)c(-c2cccnc2)c(=O)o1 [Example 9]
0.3 to 1 | 14 | CS(=O)(=O)c1ccc(-c2cc(C(F)(F)F)oc(=O)c2Sc2ccccc2)cc1 [Example 11, 4-(4-(Methylsulfonyl)phenyl)-3-phenylthio-6-trifluoromethyl-pyran-2-one]
1 to 3 | >33 | CC(C)Sc1c(-c2ccc(S(C)(=O)=O)cc2)cc(C(F)(F)F)oc1=O [Example 12, 3-Isopropylthio-4-(4-(methylsulfonyl)phenyl)-6-trifluoromethyl-pyran-2-one]
< 0.4 | 1 to 3 | Cc1cc(-c2ccc(S(C)(=O)=O)cc2)c(Oc2ccccc2)c(=O)o1 [Example 8, 6-Methyl-4-(4-(methylsulfonyl)phenyl)-3-phenoxy-pyran-2-one]

Continued, molecule first:

Structure (SMILES) | IC50 (COX-2) [µM] | IC50 (COX-1) [µM]
CS(=O)(=O)c1ccc(-c2cc(C(F)F)oc(=O)c2-c2ccccc2)cc1 [Example 5, 6-Difluoromethyl-4-(4-methylsulfonyl)phenyl-3-phenyl-pyran-2-one] | 1.8 | 0.3 to 1
CS(=O)(=O)c1ccc(-c2ccoc(=O)c2-c2ccccc2)cc1 [Example 1, 4-(4-Methylsulfonyl)phenyl-3-phenyl-pyran-2-one] | 2.6 | > 10
Cc1cc(-c2ccc(S(C)(=O)=O)cc2)c(-c2ccccc2)c(=O)o1 [Example 4, 6-Methyl-4-(4-methylsulfonyl)phenyl-3-phenyl-pyran-2-one] | < 0.4 | 1
Cc1cc(-c2ccc(S(C)(=O)=O)cc2)c(-c2ccc(F)cc2)c(=O)o1 [Example 2, 3-(4-Fluorophenyl)-6-methyl-4-(4-methylsulfonyl)phenyl-pyran-2-one] | < 0.4 | 0.3 to 1
CS(=O)(=O)c1ccc(-c2cc(CF)oc(=O)c2-c2ccccc2)cc1 [Example 6, 6-Fluoromethyl-4-(4-methylsulfonyl)phenyl-3-phenyl-pyran-2-one] | 3.1 | ~1
Cc1cc(-c2ccc(S(C)(=O)=O)cc2)c(-c2cccc(F)c2)c(=O)o1 [Example 3, 3-(3-Fluorophenyl)-6-methyl-4-(4-methylsulfonyl)phenyl-pyran-2-one] | < 0.4 | 3 to 10
Cc1cc(-c2ccc(S(C)(=O)=O)cc2)c(Sc2ccccc2)c(=O)o1 [Example 7, 6-Methyl-4-(4-(methylsulfonyl)phenyl)-3-phenylthio-pyran-2-one] | 0.5 | 1 to 3
